Where “and” joins values, the source holds several entries; their conditions need not be identical. Identical values can stand only once.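 96-well plates; 48 h exposure; 5 concentrations. Endpoints by linear interpolation between flanking doses. Not reached: highest tested concentration assigned. GI50 marks 50% less growth. TGI denotes the concentration required for complete inhibition of growth.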

14 compounds from PubChem BioAssay (NCI) can be followed below.

Among the test systems are MALME-3M melanoma; CAKI-1 renal; TK-10 renal; OVCAR-3 ovarian; RPMI-8226 leukemia; IGROV1 ovarian; SNB-75 CNS; SF-268 CNS; SK-MEL-5 melanoma.
Common to all, as to experiment: NCI anticancer screen, dose series, 48 h

As to `O=C(/C=C/C12c3ccccc3C(c3ccccc31)C1C(=O)NC(=O)C12)c1ccc(Cl)cc1Cl` (stereo not drawn), the GI50 with MALME-3M melanoma is 1.71 µM; in the assay on CAKI-1 renal, 1.57 µM; with TK-10 renal, 1.9 µM; with OVCAR-3 ovarian, 1.71 µM; with RPMI-8226 leukemia, 1.68 µM; with IGROV1 ovarian, 1.97 µM. The GI50 in the assay on SNB-75 CNS was 1.64 µM; in the assay on SF-268 CNS, 1.79 µM; in the assay on SK-MEL-5 melanoma it was 1.71 µM. Moreover, the TGI came to 3.12 µM with MALME-3M melanoma; 3.05 µM in the assay with CAKI-1 renal; 3.5 µM with TK-10 renal; 3.16 µM in the assay on OVCAR-3 ovarian; 4.41 µM in the assay with RPMI-8226 leukemia; 4.27 µM in the assay on IGROV1 ovarian. The values for the TGI in the assay on SNB-75 CNS, in the assay with SF-268 CNS and in the assay on SK-MEL-5 melanoma were 3.08 µM, 3.44 µM and 3.34 µM, respectively.

Consider `COc1ccc(S(=O)(=O)N2CCN(C(=O)c3ccc(-c4ccccc4)cc3)CC2C(=O)NO)cc1` (stereo not drawn), for which the GI50 in the assay with MALME-3M melanoma was 2.25 µM and 17.3 µM; in the assay on CAKI-1 renal it was 2.99 µM and 21.9 µM; in the assay with TK-10 renal, 1.83 µM and 12.1 µM; in the assay with OVCAR-3 ovarian, 3.88 µM and 11.2 µM; in the assay with RPMI-8226 leukemia it was over 100 µM; in the assay with SNB-75 CNS, 3.66 µM. The TGI was 12.5 µM and > 100 µM in the assay on CAKI-1 renal; 7.33 µM and 58.5 µM with TK-10 renal; 11.2 µM and 47.6 µM with OVCAR-3 ovarian; over 100 µM in the assay on RPMI-8226 leukemia; 10.3 µM in the assay on SNB-75 CNS.

Regarding `CCc1ccc(NC(=O)NC(=O)c2ccccc2[N+](=O)[O-])cc1Oc1ncc(Cl)cn1`, the TGI in the assay with MALME-3M melanoma is over 100 µM; with TK-10 renal, over 100 µM; in the assay with OVCAR-3 ovarian, 13.9 µM; in the assay on RPMI-8226 leukemia, over 4.64 µM; with IGROV1 ovarian, over 100 µM; in the assay on SF-268 CNS, over 16.9 µM. The TGI with SK-MEL-5 melanoma is 0.0327 µM.

In the case of `COc1ccc(NC(=O)CSC2=C(Nc3cccc(Br)c3)C(=O)N(Cc3ccccc3)C2=O)cc1Cl`, the GI50 was over 100 µM in the assay on CAKI-1 renal; 44.4 µM with TK-10 renal; over 100 µM with OVCAR-3 ovarian; 4.14 µM in the assay with RPMI-8226 leukemia; 30.7 µM with IGROV1 ovarian; over 100 µM in the assay with SNB-75 CNS. Besides, the GI50 is 21.5 µM in the assay on SF-268 CNS and 16.8 µM with SK-MEL-5 melanoma. The TGI with CAKI-1 renal, with TK-10 renal, in the assay with OVCAR-3 ovarian, in the assay on RPMI-8226 leukemia, in the assay with IGROV1 ovarian and with SNB-75 CNS was over 100 µM in each case. The TGI with SF-268 CNS and in the assay with SK-MEL-5 melanoma was over 100 µM in each case.

As to `CC(Oc1ccc2c(-c3ccccc3)cc(=O)oc2c1)C(=O)O` (stereo not drawn), the TGI in the assay on MALME-3M melanoma, in the assay on CAKI-1 renal, with TK-10 renal, with OVCAR-3 ovarian, in the assay on IGROV1 ovarian and with SNB-75 CNS was over 100 µM throughout. The TGI with SF-268 CNS and in the assay on SK-MEL-5 melanoma was over 100 µM each time.

With `CCC(=O)c1c(NOC2OCC(OC(C)=O)C(OC(C)=O)C2OC(C)=O)nc(OC)n(C)c1=O` (stereo not drawn), the TGI in the assay on MALME-3M melanoma, in the assay with CAKI-1 renal, with TK-10 renal, in the assay with OVCAR-3 ovarian, in the assay with RPMI-8226 leukemia and in the assay on IGROV1 ovarian was over 100 µM in each case. The TGI in the assay with SNB-75 CNS, in the assay with SF-268 CNS and in the assay with SK-MEL-5 melanoma was over 100 µM each time.

In the case of `COc1ccc(NC(=O)/C(=C/c2ccccc2)C(C)=O)cc1`, the TGI came to 32.3 µM in the assay on MALME-3M melanoma; 29.2 µM in the assay on CAKI-1 renal; 37.4 µM in the assay on TK-10 renal; 29.9 µM in the assay with OVCAR-3 ovarian; 24.8 µM in the assay with RPMI-8226 leukemia; 38.6 µM in the assay with IGROV1 ovarian. Moreover, the TGI is 21 µM in the assay with SNB-75 CNS, 34.3 µM in the assay with SF-268 CNS and 28.2 µM in the assay on SK-MEL-5 melanoma.

In the case of `CCC1CC2C(=O)N(c3ccccc3)C(=O)C2c2[nH]c3ccccc3c21` (stereo not drawn), the TGI in the assay on MALME-3M melanoma is 38.7 µM; with TK-10 renal it was 68.3 µM; in the assay with OVCAR-3 ovarian, 44.9 µM; in the assay with RPMI-8226 leukemia, over 100 µM; in the assay with IGROV1 ovarian it was 30.6 µM; in the assay on SNB-75 CNS, 13 µM. For the same compound, the TGI was 80 µM with SF-268 CNS and over 100 µM in the assay with SK-MEL-5 melanoma.

As to `CC1/C=C/[C@@]2(C)CCC(C(C)(C)O)C2C(O)C[C@](C)(O)/C=C/C1` (stereo partly drawn), the TGI in the assay on MALME-3M melanoma, with CAKI-1 renal, in the assay on TK-10 renal, in the assay with OVCAR-3 ovarian, in the assay on RPMI-8226 leukemia and in the assay with IGROV1 ovarian was over 100 µM each time. Further, the TGI in the assay on SNB-75 CNS, in the assay with SF-268 CNS and in the assay with SK-MEL-5 melanoma was over 100 µM in each case.

Consider `COc1ccc(OC)c(NC(=O)CCC/C(CC(=O)c2ccc(O)c(OC)c2)=N\Nc2nnc(C)n2N)c1`, for which the TGI in the assay with MALME-3M melanoma, in the assay on CAKI-1 renal, in the assay on TK-10 renal, with OVCAR-3 ovarian, in the assay with RPMI-8226 leukemia and with IGROV1 ovarian was over 100 µM in each case. The TGI with SNB-75 CNS, in the assay with SF-268 CNS and with SK-MEL-5 melanoma was over 100 µM throughout.

With `CC(C)(C)c1cc(C(O)(C(F)(F)F)C(F)(F)F)c2c(c1)C(C(F)(F)F)(C(F)(F)F)OC(C)(C(C)(C)C)N2` (stereo not drawn), the TGI in the assay with MALME-3M melanoma is 78.2 µM; in the assay on OVCAR-3 ovarian it was 9.18 µM; in the assay on RPMI-8226 leukemia it was 9.25 µM; with IGROV1 ovarian, over 100 µM; with SNB-75 CNS, 8.96 µM; with SK-MEL-5 melanoma it was 4.7 µM.

Regarding `Cc1ccccc1NC(=O)c1cc(-c2ccc([N+](=O)[O-])cc2)nc(=S)[nH]1`, the TGI with MALME-3M melanoma, in the assay on CAKI-1 renal, in the assay on TK-10 renal, in the assay with OVCAR-3 ovarian, in the assay on IGROV1 ovarian and in the assay on SF-268 CNS was over 100 µM each time. This compound also yielded a TGI with SK-MEL-5 melanoma of over 100 µM.

In the case of `Cc1ccc(NC(=O)CCc2nc(N)nc(N)c2-c2ccccc2)cc1C`, the TGI in the assay with MALME-3M melanoma, in the assay with CAKI-1 renal, in the assay on TK-10 renal, in the assay with OVCAR-3 ovarian, in the assay on RPMI-8226 leukemia and in the assay with IGROV1 ovarian was over 100 µM each time. The TGI with SNB-75 CNS, in the assay with SF-268 CNS and in the assay with SK-MEL-5 melanoma was over 100 µM throughout.

On to `C=C(CC(NC(=O)c1ccc(C(CC)Cc2cnc3nc(N)nc(N)c3n2)cc1)C(=O)O)C(=O)O` (stereo not drawn), for which the TGI in the assay on TK-10 renal, with RPMI-8226 leukemia, with IGROV1 ovarian, in the assay on SNB-75 CNS, in the assay with SF-268 CNS and with SK-MEL-5 melanoma was over 100 µM each time. In addition, the GI50 in the assay on SF-268 CNS is 0.0252 µM.
